In article PMC10511495, “Dermato-cosmeceutical properties of Pseudobombax ellipticum (Kunth) Dugand: Chemical profiling, in vitro and in silico studies” (Saudi Pharmaceutical Journal : SPJ, 2023):

Key:
[1] = target: T1, Porcine pancreatic elastase (Sus scrofa, UniProt P00772); assay: chromogenic peptide hydrolysis, absorbance at […] nm; type: biochemical; conditions: 0.8 mM N-succinyl-Ala-Ala-Ala-p-nitroanilide; 15 min preincubation
T1 construct: gene CELA1; native pancreatic enzyme preparation; docking used another elastase (Zn metalloprotease, MMP12)

[2] = target: T2, Collagenase from Clostridium histolyticum (ChC); assay: FALGPA hydrolysis, absorbance at […] nm; type: biochemical, Hathewaya histolytica; conditions: 2 mM FALGPA solution; 50 mM Tricine, 400 mM NaCl, 10 mM CaCl2, pH 7.5; 15 min preincubation
T2 construct: gene colG; docking used another collagenase (MMP)

T1 sequence (P00772 27-266): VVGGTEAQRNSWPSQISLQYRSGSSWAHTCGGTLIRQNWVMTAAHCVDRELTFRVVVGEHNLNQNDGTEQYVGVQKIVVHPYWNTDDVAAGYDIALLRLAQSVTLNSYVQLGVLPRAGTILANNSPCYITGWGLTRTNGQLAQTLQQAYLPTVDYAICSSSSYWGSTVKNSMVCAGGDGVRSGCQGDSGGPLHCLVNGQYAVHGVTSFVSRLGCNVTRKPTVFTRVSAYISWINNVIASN

SMILES | Parameter / Elastase [1] | Parameter / Collagenase [2]
O=c1cc(CO)occ1O [Kojic acid] | 21.60 ± 0.9 µg/mL | 
O=c1c(O)c(-c2ccc(O)c(O)c2)oc2cc(O)cc(O)c12 [Quercetin] |  | 24.83 ± 1.8 µg/mL
